Reference: patent publication US20190008843A1, “PHARMACEUTICAL COMPOSITIONS FOR ON DEMAND ANTICOAGULANT THERAPY” (Kenox Pharmaceuticals Inc, priority 2016, published 2019)

Experiments:
[1] = Aqueous solubility of Dabigatran etexilate in presence of solubility enhancers; assay type: physicochemical
From the text: However, based on data presented in Table I, TPGS (tocopherol polyethylene glycol succinate) would be expected to be a poor solubilizer by one skilled in the art. […] The present invention provides pharmaceutical compositions and method of administration of Dabigatran etexilate to overcome the clinical limitations posed by gastrointestinal delivery, specifically by increasing the solubility of Dabigatran etexilate, while maintaining it in its most bioavailable form to ascertain an effective transport through the oral mucous membranes so it effectively can exert its anticoagulant activity. We have observed that the use of pharmaceutical solubilizers such as d-alpha Tocopherol polyethylene glycol succinate (TPGS) and Polysorbate 80 improved the solubility up to 5-10 mg/mL. Without being bound to any specific mechanism, the enhanced solubility and dissolution of Dabigatran etexilate, when co-formulated with TPGS may likely be due to ability of TPGS to inhibit precipitation and maintain supersaturation of dabigatran free base in the formulation microenvironment during dissolution. Pharmaceutical co-solvents such as Polyethylene Glycol 400 (PEG 400) and Glycerol improved the solubility compared to water alone, but the solubility was still<0.1 mg/mL.

[2] = Percent of Dabigatran etexilate remaining after exposure to aqueous solutions; assay type: physicochemical; settings: 15 minutes
[3] = pH 4.5-7.4; cited from earlier work

**Q.** Which results are given for Dabigatran etexilate?
**A.** Solubility (mg/ml) 25° C. ([1]; 2% w/v Polysorbate 80 in 0.01M histidine buffer, pH 7.4, 25° C.): <0.1 mg/mL; Solubility (mg/ml) 25° C. ([1]; 5% w/v Polysorbate 80 in 0.01M histidine buffer, pH 7.5, 25° C.): <0.1 mg/mL; Solubility (mg/ml) 25° C. ([1]; 5% w/v TPGS in 0.01M histidine buffer, pH 7.6, 25° C.): 0.37 mg/mL; Solubility (mg/ml) 25° C. ([1]; 10% w/v Glycerol in 0.01M histidine buffer, pH 7.6, 25° C.): <0.1 mg/mL; Solubility (mg/ml) 25° C. ([1]; 10% w/v PEG 400 in 0.01M histidine buffer, pH 7.5, 25° C.): <0.1 mg/mL; Solubility with pharmaceutical co-solvents ([1]; Polyethylene Glycol 400 (PEG 400) and Glycerol): < 100 µg/mL; Solubility (mg/ml) 25° C. ([1]; Water, pH 6.5, 25° C.): <0.001 mg/mL; % of Initial (23° C.) ([2]; Water): 21.6%; % of Initial (40° C.) ([2]; Water): 21.0%; % of Initial (23° C.) ([2]; pH 2 acetate buffer (0.1M)): 0.2%; % of Initial (40° C.) ([2]; pH 2 acetate buffer (0.1M)): 0.2%; % of Initial (23° C.) ([2]; pH 3 acetate buffer (0.1M)): 22.4%; % of Initial (40° C.) ([2]; pH 3 acetate buffer (0.1M)): 22.2%; % of Initial (23° C.) ([2]; pH 4 phosphate buffer (0.1M)): 59.5%; % of Initial (40° C.) ([2]; pH 4 phosphate buffer (0.1M)): 55.7%; Solubility under physiological conditions relevant to oral absorption [3]: virtually insoluble
